Data published in ChEMBL document CHEMBL4196011, “The lead optimization of the polyamine conjugate of flavonoid with a naphthalene motif: Synthesis and biological evaluation” (Eur J Med Chem, 2018).
Activity calls are given as the source filed them. No cut-off for these calls is given here.

How the values were obtained:
[1] = tested on: HepG2; assay: Induction of apoptosis in human HepG2 cells assessed as viable cells at 5 uM after 36 hrs by Annexin V-FITC/propidium iodide staining-based flow cytometry (reference value: 96.6%); assay type: functional; settings: HepG2, 36 h, read-out: Activity
[2] = tested on: HepG2; assay: Induction of apoptosis in human HepG2 cells assessed as early apoptotic cells at 5 uM after 8 hrs by Annexin V-FITC/propidium iodide staining-based flow cytometry (reference value: 1.29%); assay type: functional
[3] = tested on: HepG2; assay: Induction of apoptosis in human HepG2 cells assessed as viable cells at 7.5 uM after 36 hrs by Annexin V-FITC/propidium iodide staining-based flow cytometry (reference value: 96.6%); assay type: functional; settings: HepG2, 36 h, read-out: Activity
[4] = Cytotoxicity against human QSG7701 cells up to 15 uM after 48 hrs by MTT assay; assay type: cell-based
[5] = tested on: HepG2; assay: Induction of apoptosis in human HepG2 cells assessed as early apoptotic cells at 7.5 uM after 36 hrs by Annexin V-FITC/propidium iodide staining-based flow cytometry (reference value: 2.08%); assay type: functional
[6] = Drug localization in golgi apparatus of human HepG2 cells at 7.5 uM after 8 hrs by Golgi-Tracker Red dye-based confocal fluorescence microscopic analysis; assay type: ADME, subcellular; settings: hepg2, 8 h
[7] = tested on: HepG2; assay: Induction of autophagy in human HepG2 cells assessed as increase in LC3-2 expression at 5 uM in presence of autophagy inhibitor 3-MA by Western blot analysis; assay type: functional, cell-based
[8] = tested on: HepG2; assay: Induction of apoptosis in human HepG2 cells assessed as early apoptotic cells at 7.5 uM after 24 hrs by Annexin V-FITC/propidium iodide staining-based flow cytometry (reference value: 2.07%); assay type: functional
[9] = tested on: HepG2; assay: Induction of apoptosis in human HepG2 cells assessed as late apoptotic cells at 5 uM after 36 hrs by Annexin V-FITC/propidium iodide staining-based flow cytometry (reference value: 1.08%); assay type: functional
[10] = tested on: H22; assay: Antitumor activity against […] xenografted in Kunming mouse assessed as tumor growth inhibition at 30 mg/kg, iv for 7 consecutive days measured on day 16; assay type: functional; settings: 384 h, read-out: TGI
[11] = tested on: HepG2; assay: Induction of apoptosis in human HepG2 cells assessed as caspase 3 activation after 48 hrs by immunofluorescence staining-based high content screening assay; assay type: functional, cell-based
[12] = tested on: HepG2; assay: Induction of apoptosis in human HepG2 cells assessed as upregulation of active caspase 9 level after 48 hrs by immunofluorescence staining-based high content screening assay; assay type: functional, cell-based
[13] = tested on: HepG2; assay: Induction of autophagy in human HepG2 cells assessed as increase in LC3-2 expression at 5 uM by Western blot analysis; assay type: functional, cell-based
[14] = tested on: HepG2; assay: Induction of apoptosis in human HepG2 cells assessed as increase in cleaved PARP1 levels after 48 hrs by immunofluorescence staining-based high content screening assay; assay type: functional, cell-based
[15] = tested on: Mus musculus; assay: Toxicity in Kunming mouse xenografted with […] H22 cells assessed as effect on lung weight index at 30 mg/kg, iv administered for 7 consecutive days; assay type: organism-based; settings: in vivo
[16] = tested on: HepG2; assay: Induction of apoptosis in human HepG2 cells assessed as late apoptotic cells at 2.5 uM after 48 hrs by Annexin V-FITC/propidium iodide staining-based flow cytometry (reference value: 0.95%); assay type: functional
[17] = tested on: HepG2; assay: Induction of apoptosis in human HepG2 cells assessed as early apoptotic cells at 2.5 uM after 36 hrs by Annexin V-FITC/propidium iodide staining-based flow cytometry (reference value: 2.08%); assay type: functional
[18] = Drug localization in endoplasmic reticulum of human HepG2 cells at 7.5 uM after 8 hrs by ER-Tracker Red dye-based confocal fluorescence microscopic analysis; assay type: ADME, subcellular; settings: hepg2, 8 h
[19] = tested on: HepG2; assay: Induction of apoptosis in human HepG2 cells assessed as late apoptotic cells at 2.5 uM after 24 hrs by Annexin V-FITC/propidium iodide staining-based flow cytometry (reference value: 0.88%); assay type: functional
[20] = tested on: HepG2; assay: Induction of apoptosis in human HepG2 cells assessed as early apoptotic cells at 2.5 uM after 8 hrs by Annexin V-FITC/propidium iodide staining-based flow cytometry (reference value: 1.29%); assay type: functional
[21] = tested on: HepG2; assay: Induction of apoptosis in human HepG2 cells assessed as viable cells at 7.5 uM after 48 hrs by Annexin V-FITC/propidium iodide staining-based flow cytometry (reference value: 96.67%); assay type: functional; settings: HepG2, 48 h, read-out: Activity
[22] = tested on: HepG2; assay: Induction of apoptosis in human HepG2 cells assessed as late apoptotic cells at 2.5 uM after 36 hrs by Annexin V-FITC/propidium iodide staining-based flow cytometry (reference value: 1.08%); assay type: functional
[23] = tested on: HepG2; assay: Induction of apoptosis in human HepG2 cells assessed as necrotic cells at 2.5 uM after 36 hrs by Annexin V-FITC/propidium iodide staining-based flow cytometry (reference value: 0.24%); assay type: functional
[24] = tested on: HepG2; assay: Induction of apoptosis in human HepG2 cells assessed as early apoptotic cells at 7.5 uM after 8 hrs by Annexin V-FITC/propidium iodide staining-based flow cytometry (reference value: 1.29%); assay type: functional
[25] = tested on: HepG2; assay: Induction of apoptosis in human HepG2 cells assessed as late apoptotic cells at 2.5 uM after 8 hrs by Annexin V-FITC/propidium iodide staining-based flow cytometry (reference value: 0.88%); assay type: functional
[26] = tested on: HepG2; assay: Induction of apoptosis in human HepG2 cells assessed as viable cells at 7.5 uM after 24 hrs by Annexin V-FITC/propidium iodide staining-based flow cytometry (reference value: 96.97%); assay type: functional; settings: HepG2, 24 h, read-out: Activity
[27] = tested on: HeLa; assay: Antiproliferative activity against human HeLa cells after 48 hrs by MTT assay; assay type: functional, cell-based
[28] = Toxicity in iv dosed Kunming mouse assessed as maximum tolerated dose administered for 7 consecutive days; assay type: organism-based; settings: in vivo
[29] = tested on: HepG2; assay: Induction of apoptosis in human HepG2 cells assessed as viable cells at 2.5 uM after 36 hrs by Annexin V-FITC/propidium iodide staining-based flow cytometry (reference value: 96.6%); assay type: functional; settings: HepG2, 36 h, read-out: Activity
[30] = tested on: HepG2; assay: Induction of ROS generation in human HepG2 cells after 48 hrs by DCFH-DA staining-based fluorescence assay; assay type: functional, cell-based
[31] = tested on: HepG2; assay: Induction of apoptosis in human HepG2 cells assessed as necrotic cells at 5 uM after 24 hrs by Annexin V-FITC/propidium iodide staining-based flow cytometry (reference value: 0.12%); assay type: functional
[32] = tested on: HepG2; assay: Induction of apoptosis in human HepG2 cells assessed as decrease in Bcl2 protein expression after 48 hrs by immunofluorescence staining-based high content screening assay; assay type: functional, cell-based
[33] = tested on: HepG2; assay: Induction of apoptosis in human HepG2 cells assessed as early apoptotic cells at 5 uM after 36 hrs by Annexin V-FITC/propidium iodide staining-based flow cytometry (reference value: 2.08%); assay type: functional
[34] = tested on: Mus musculus; assay: Toxicity in Kunming mouse xenografted with […] H22 cells assessed as effect on liver weight index at 30 mg/kg, iv administered for 7 consecutive days; assay type: organism-based; settings: in vivo
[35] = tested on: HepG2; assay: Induction of apoptosis in human HepG2 cells assessed as increase in Bid expression levels after 48 hrs by immunofluorescence staining-based high content screening assay; assay type: functional, cell-based
[36] = tested on: HepG2; assay: Induction of apoptosis in human HepG2 cells assessed as necrotic cells at 5 uM after 48 hrs by Annexin V-FITC/propidium iodide staining-based flow cytometry (reference value: 0.08%); assay type: functional
[37] = tested on: HepG2; assay: Induction of apoptosis in human HepG2 cells assessed as upregulation of active caspase 8 level after 48 hrs by immunofluorescence staining-based high content screening assay; assay type: functional, cell-based

With COc1ccc2cc(-c3oc4c(CNCCCCN)cccc4c(=O)c3OC)ccc2c1Br.Cl.Cl as the compound, how does the viability at 5 µM [1] read?
Its viability at 5 µM is 81%.

And the Activity [2]?
Its Activity is 5.06%.

And the viability at 7.5 µM [3]?
Its viability at 7.5 µM is 64.7%.

What about the Activity [4] of the same compound?
The Activity was “Non-Toxic”.

What about the Activity [5] of the same compound?
Its Activity is 28.78%.

What about the Drug uptake [6] of the same compound?
Its Drug uptake is “Not Active”.

What about the Activity [7] of the same compound?
Its Activity is “inactive”.

And the Activity [8]?
The Activity was 18.85%.

What about the Activity [9] of the same compound?
Its Activity is 2.15%.

And the inhibition in vivo at 30 mg/kg [10]?
The inhibition in vivo at 30 mg/kg was 63.6%.

What about the Activity [11] of the same compound?
The Activity was “Dose-dependent effect”.

And the Activity [12]?
The Activity was “Dose-dependent effect”.

What about the Activity [13] of the same compound?
The Activity was “Active”.

And the Activity [14]?
Its Activity is “Dose-dependent effect”.

And the Activity [15]?
The Activity was “Non-Toxic”.

And the Activity [16]?
Its Activity is 3.85%.

What about the Activity [17] of the same compound?
Its Activity is 6.24%.

What about the Drug uptake [18] of the same compound?
The Drug uptake was “Active”.

And the Activity [19]?
Its Activity is 0.88%.

What about the Activity [20] of the same compound?
The Activity was 2.06%.

And the viability at 7.5 µM [21]?
The viability at 7.5 µM was 45.6%.

What about the Activity [22] of the same compound?
Its Activity is 5.89%.

What about the Activity [23] of the same compound?
Its Activity is 3.9%.

And the Activity [24]?
The Activity was 18.1%.

And the Activity [25]?
The Activity was 1.52%.

What about the viability at 7.5 µM [26] of the same compound?
The viability at 7.5 µM was 67.2%.

What about the IC50 [27] of the same compound?
Its IC50 is 5.9 µM.

What about the MTD at 7 days [28] of the same compound?
Its MTD at 7 days is 50 mg/kg.

What about the viability at 2.5 µM [29] of the same compound?
Its viability at 2.5 µM is 84%.

And the Activity [30]?
The Activity was “Dose-dependent effect”.

And the Activity [31]?
Its Activity is 0.05%.

What about the Activity [32] of the same compound?
The Activity was “Active”.

What about the Activity [33] of the same compound?
The Activity was 16.72%.

And the Activity [34]?
The Activity was “Non-Toxic”.

What about the Activity [35] of the same compound?
The Activity was “Dose-dependent effect”.

What about the Activity [36] of the same compound?
The Activity was 3.39%.

What about the Activity [37] of the same compound?
Its Activity is “Dose-dependent effect”.
